Earlier results as cited in US20040224039A1, “Compositions and methods for the treatment of diseases and disorder associated with oxidative damage” (priority 2003, published 2004).

Conditions: following the administration of 500 mg aspirin

CC(=O)Oc1ccccc1C(=O)O [aspirin, acetylsalicylic acid]
plasma level: 130 µM
